Assay results reported in PMC7307906, “Macrocyclic Modalities Combining Peptide Epitopes and Natural Product Fragments” (Journal of the American Chemical Society, 2020).
Where a SMILES comes first, the peptide text is derived from it.

What was measured:
[1] = molecular target: T1, human MC4R (Homo sapiens, UniProt P32245); assay: Melanocortin receptor radioligand binding (SPA, [125I]-NDP-α-MSH displacement), MC4R; conditions: competitive binding, mean (± SEM) of at least three independent experiments, read-out: IC50 hMC4R binding
T1 construct: expressed in transfected cells

[2] = molecular target: T1, human MC4R; assay: cAMP assay (LANCE) in T-Rex-293 cells expressing MC4R; format: cell-based; conditions: cAMP assay; mean (± SEM) of at least three independent experiments; read-out: EC50 hMC4R cAMP
[3] = molecular target: T2, human MC3R (Homo sapiens, UniProt P41968); assay: cAMP assay (LANCE) in T-Rex-293 cells expressing MC3R; format: cell-based; conditions: cAMP assay; mean (± SEM) of at least three independent experiments; read-out: EC50 hMC3R cAMP
T2 construct: expressed in transfected cells

[4] = molecular target: T2, human MC3R; assay: Melanocortin receptor radioligand binding (SPA, [125I]-NDP-α-MSH displacement), MC3R; conditions: competitive binding, mean (± SEM) of at least three independent experiments, read-out: IC50 hMC3R binding
[5] = molecular target: T3, human MC1R (Homo sapiens, UniProt Q01726); assay: cAMP assay (LANCE) in T-Rex-293 cells expressing MC1R; format: cell-based; conditions: for Emax: T-REx-293, read-out: % Effect hMC1R cAMP; for EC50: mean (± SEM) of at least three independent experiments, read-out: EC50 hMC1R cAMP
T3 construct: expressed in transfected cells

[6] = molecular target: T3, human MC1R; assay: Melanocortin receptor radioligand binding (SPA, [125I]-NDP-α-MSH displacement), MC1R; conditions: competitive binding, mean (± SEM) of at least three independent experiments, read-out: IC50 hMC1R binding
[7] = molecular target: T4, human MC5R (Homo sapiens, UniProt P33032); assay: Melanocortin receptor radioligand binding (SPA, [125I]-NDP-α-MSH displacement), MC5R; conditions: competitive binding, [125I]-NDP-α-MSH; mean (± SEM) of at least three independent experiments; read-out: IC50 hMC5R binding
T4 construct: expressed in transfected cells; host or cells: HEK293-6E suspension cells, transient expression; membranes
T4 sequence (P33032 whole entry): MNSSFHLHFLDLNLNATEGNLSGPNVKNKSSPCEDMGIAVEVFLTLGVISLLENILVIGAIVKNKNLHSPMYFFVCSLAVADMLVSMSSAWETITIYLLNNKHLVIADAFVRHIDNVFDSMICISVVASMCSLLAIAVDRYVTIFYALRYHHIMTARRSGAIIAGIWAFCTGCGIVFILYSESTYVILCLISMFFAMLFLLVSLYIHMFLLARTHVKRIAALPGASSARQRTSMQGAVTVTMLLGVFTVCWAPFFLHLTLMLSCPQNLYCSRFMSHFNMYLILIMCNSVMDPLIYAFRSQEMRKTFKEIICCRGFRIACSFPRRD

T2 sequence (P41968 whole entry): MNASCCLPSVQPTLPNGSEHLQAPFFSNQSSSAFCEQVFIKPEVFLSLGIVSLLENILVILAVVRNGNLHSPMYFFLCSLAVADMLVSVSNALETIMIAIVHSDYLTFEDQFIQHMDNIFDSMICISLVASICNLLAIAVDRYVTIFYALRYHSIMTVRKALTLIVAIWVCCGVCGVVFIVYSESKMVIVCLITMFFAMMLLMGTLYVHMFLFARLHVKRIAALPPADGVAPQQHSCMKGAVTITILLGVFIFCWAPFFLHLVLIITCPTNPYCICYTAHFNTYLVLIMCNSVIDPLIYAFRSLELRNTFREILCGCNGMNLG
T3 sequence (Q01726 whole entry): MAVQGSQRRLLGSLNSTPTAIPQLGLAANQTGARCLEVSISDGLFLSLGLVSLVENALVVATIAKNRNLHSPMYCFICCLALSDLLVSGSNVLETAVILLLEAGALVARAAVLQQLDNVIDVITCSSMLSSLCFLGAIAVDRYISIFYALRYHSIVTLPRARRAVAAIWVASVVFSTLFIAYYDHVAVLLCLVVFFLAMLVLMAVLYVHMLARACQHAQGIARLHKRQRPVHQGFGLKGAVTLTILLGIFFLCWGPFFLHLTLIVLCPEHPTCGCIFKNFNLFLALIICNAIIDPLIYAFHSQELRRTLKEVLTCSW
T1 sequence (P32245 whole entry): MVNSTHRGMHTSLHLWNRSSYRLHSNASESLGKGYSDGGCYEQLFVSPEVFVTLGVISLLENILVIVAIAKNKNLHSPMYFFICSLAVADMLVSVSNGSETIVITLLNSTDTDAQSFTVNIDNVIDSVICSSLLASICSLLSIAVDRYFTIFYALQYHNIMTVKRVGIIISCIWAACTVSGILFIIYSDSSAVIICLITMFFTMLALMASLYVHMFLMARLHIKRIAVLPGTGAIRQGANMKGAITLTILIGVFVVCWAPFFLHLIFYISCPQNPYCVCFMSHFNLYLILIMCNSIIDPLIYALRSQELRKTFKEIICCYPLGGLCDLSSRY

SMILES | IC50 [1] [µM] | EC50 [2] [µM] | EC50 [3] [µM] | IC50 [4] [µM] | Emax [5] [%] | agonistic activity at MC1R (in words) ([5]; cAMP assay, hMC1R) | IC50 [6] [µM] | IC50 [7] [µM] | % Effect hMC1R cAMP at 10 µM ([5]; % effect at 10 µM, compounds not reaching an upper plateau (#)) [%] | EC50 ([5]; cAMP assay) [µM]
C[C@@H]1NC(=O)[C@H](CC(N)=O)NC(=O)[C@@H](Cc2ccccc2)NC(=O)[C@@H](Cc2ccccc2)NC(=O)[C@H](CCCNC(=N)N)NC(=O)[C@@H](NC(=O)[C@@H](N)Cc2ccc(O)cc2)CSSC[C@@H](C(=O)N[C@@H](Cc2ccc(O)cc2)C(N)=O)NC(=O)[C@H](Cc2ccccc2)NC1=O [compound 29, Y[CRffNAFC]Y, reference compound] (HELM PEPTIDE1{Y.C.R.[dF].[dF].N.A.F.C.Y.[am]}$PEPTIDE1,PEPTIDE1,2:R3-9:R3$$$V2.0) | 7.1 ± 0.5 | > 100 | > 100 | 9.5 ± 0.9 | 84 | selective and almost full agonistic activity | 2.5 ± 0.5 | 2.5 ± 0.3 |  | 
CN1C(=O)[C@H]2N[C@@H](c3ccc(cc3)C(=O)NCCCC[C@@H](C(=O)N[C@@H](Cc3ccc(O)cc3)C(N)=O)NC(=O)[C@H](Cc3ccccc3)NC(=O)[C@H](Cc3ccccc3)NC(=O)[C@H](CCCNC(=N)N)NC(=O)[C@@H]1Cc1ccccc1)[C@H]1C(=O)N(c3ccccc3)C(=O)[C@H]12 [N1-major*, [II-FRFFK ]Y] | > 10 | > 10 | > 10 | > 10 |  |  | > 10 | > 10 | 33 | > 10
CN1C(=O)[C@@H]2N[C@H](c3ccc(cc3)C(=O)NCCCC[C@@H](C(=O)NCC(N)=O)NC(=O)[C@H](CC(N)=O)NC(=O)[C@H](Cc3ccccc3)NC(=O)[C@H](Cc3ccccc3)NC(=O)[C@H](CCCNC(=N)N)NC(=O)[C@@H]1Cc1ccccc1)[C@@H]1C(=O)N(c3ccccc3)C(=O)[C@@H]12 [J3-minor*, [ II-FRFFNK ]G] | 17 ± 2 | > 100 | > 100 | 21 ± 1 |  |  | 13 ± 1 | 6.2 ± 0.5 |  | > 100
CN1C(=O)[C@@H]2[C@H](C1=O)[C@H]1N[C@@H]2c2ccc(cc2)C(=O)NCCCC[C@@H](C(=O)N[C@@H](Cc2ccc(O)cc2)C(N)=O)NC(=O)[C@H](CC(N)=O)NC(=O)[C@H](Cc2ccccc2)NC(=O)[C@H](Cc2ccccc2)NC(=O)[C@H](CCCNC(=N)N)NC(=O)[C@H](Cc2ccccc2)N(C)C1=O [J1-major, [ I-FRFFNK ]Y] | > 100 | > 100 | > 100 | > 100 | 51 |  | > 100 | 41 ± 9 |  | 17 ± 5
CN1C(=O)[C@H]2N[C@@H](c3ccc(cc3)C(=O)NCCCC[C@@H](C(=O)NCC(N)=O)NC(=O)[C@H](CC(N)=O)NC(=O)[C@H](Cc3ccccc3)NC(=O)[C@H](Cc3ccccc3)NC(=O)[C@H](CCCNC(=N)N)NC(=O)[C@@H]1Cc1ccccc1)[C@H]1C(=O)N(c3ccccc3)C(=O)[C@H]12 [J3-major*, [ II-FRFFNK ]G] | > 100 | > 100 | > 100 | > 100 | 63 |  | 78 ± 2 | 54 ± 6 |  | 14 ± 5
CN1C(=O)[C@@H]2N[C@H](c3ccc(cc3)C(=O)NCCCC[C@@H](C(=O)NCC(N)=O)NC(=O)[C@H](CC(N)=O)NC(=O)[C@@H](Cc3ccccc3)NC(=O)[C@@H](Cc3ccccc3)NC(=O)[C@H](CCCNC(=N)N)NC(=O)[C@@H]1Cc1ccccc1)[C@@H]1C(=O)N(c3ccccc3)C(=O)[C@@H]12 [K3-major, [II-FRffNK ]G] | > 10 | > 10 | > 10 | > 10 | 42 |  | > 10 | 4.2 ± 0.1 |  | > 10
C[C@@H]1NC(=O)[C@H](CC(N)=O)NC(=O)[C@H](Cc2ccccc2)NC(=O)[C@H](Cc2ccccc2)NC(=O)[C@H](CCCNC(=N)N)NC(=O)[C@H](Cc2ccccc2)N(C)C(=O)[C@@H]2N[C@H](c3ccc(cc3)C(=O)NCCCC[C@@H](C(=O)N[C@@H](Cc3ccc(O)cc3)C(N)=O)NC(=O)[C@H](Cc3ccccc3)NC1=O)[C@@H]1C(=O)N(C)C(=O)[C@@H]12 [B1-major, [ I-FRFFNAFK ]Y] | 34 ± 3 | > 100 | > 100 | 32 ± 2 | 37 |  | 41 ± 2 | 16 ± 2 |  | 1.8 ± 1.2
